Experimental data taken from patent US20020183297A1, “Pharmaceutical composition for the treatment of alopecia” (priority 2001, published 2002).

Experiments:
[1] = test system: hair growth on scalp of subjects with baldness / hair loss; test: compositions tested in humans (topical application to scalp); assay type: in vivo, human; settings: summary statement; animals and humans / applied directly to scalp
Description: The composition is applied to scalp ideally after thoroughly cleansing hair with soap and water to remove as much sebaceous secretions as possible. Sufficient quantity of the composition is applied to balding areas of scalp repeatedly, 1-2 times per day and applications continued for several days or weeks. It may be necessary, as it has been observed, to repeat the application frequently to keep the new follicular growth and to initiate further growth.
Finally, the compositions were tested in humans. Ten subjects with advanced male pattern baldness used test preparation #1 and #2 (five subjects each) as described above for a period of three weeks. […] Three female subjects with thinning hair used composition #3 and #4 for a period of five weeks daily.

[2] = test system: stem cells; test: tritiated thymidine labeling of stem cells (murine skin explants; label retaining cells in mice); assay type: cell-based, mouse
Excerpt: The effectiveness of stimulant of stem cells can be readily evaluated using the technique of tritiated thymidine labeling. We studied the effectiveness of the invention on stimulation of stem cell populations by using the technique of tritiated thymidine labeling of stem cells. The effects of compositions described here were studied on explants of murine skin. Explant cultures were serially harvested at daily intervals for the first 4 days of exposure, and composition effects on ^3H-TdR (tritiated thymidine) incorporation assessed in accordance with standard techniques. Because of the slow- cycling nature of stem cells, repeated administration of tritiated thymidine is necessary. After the labeling, the cells are chased for four weeks wherein the stem cells retain the label longer and are thus quantitated comparatively to control.
In another series of experiments, a cohort of mice was continuously labeled for 2 weeks with ^3H- TdR and then allowed to rest for 4 weeks. Once labeled, cells that cycle slowly retained isotopes for an extended period of time. Twice daily, subcutaneous injections of ^3H-TdR were given to newborn mice over the first seven days of life resulting in the labeling of almost 100% of nuclei in mouse epidermis, hair follicles, sebaceous glands, fibroblasts, and endothelial cells. […]

CC[C@H](CC[C@@H](C)[C@H]1CC[C@H]2[C@@H]3CC=C4C[C@@H](O)CC[C@]4(C)[C@H]3CC[C@]12C)C(C)C [β-sitosterol]
growth of hair [1]: enhance growth of hair
activity of stem cells and/or bulge cells responsible for growth of hair [2]: significantly enhances
